Measured values: publication PMC5218480 (PLoS ONE, 2017)

Test system: MV-4-11 cells
Experiment: Gene expression microarray analysis (Affymetrix PrimeView) and GSEA
Format: cell-based, human
Design: RFU PODN (11730768_x_at) / Fold change /veh PODN (11730768_x_at) / RFU LINC00158 (11744669_a_at) / Fold change /veh LINC00158 (11744669_a_at) / RFU DUSP10 (11751237_a_at) / Fold change /veh DUSP10 (11751237_a_at) / RFU ID3 (11757404_x_at) / Fold change /veh ID3 (11757404_x_at) / RFU PLEKHG5 (11737974_s_at) / Fold change /veh PLEKHG5 (11737974_s_at) / RFU LRRC4B (11730491_at) / Fold change /veh LRRC4B (11730491_at) / RFU GIMAP4 (11747438_a_at) / Fold change /veh GIMAP4 (11747438_a_at) / RFU KRT8 (11758183_x_at) / Fold change /veh KRT8 (11758183_x_at) / RFU CNN1 (11734310_a_at) / Fold change /veh CNN1 (11734310_a_at) / RFU VPS37D (11726825_at) / Fold change /veh VPS37D (11726825_at) / RFU C10orf10 (11716522_x_at) / Fold change /veh C10orf10 (11716522_x_at) / RFU KIR2DL2 /// KIR2DL4 /// KIR2DL5A /// KIR2DL5B /// KIR2DS1 /// KIR2DS2 /// KIR2DS3 /// KIR2DS4 /// KIR3DL3 /// KIR3DL3 /// KIR3DS1 (11738374_at) / Fold change /veh KIR2DL2 /// KIR2DL4 /// KIR2DL5A /// KIR2DL5B /// KIR2DS1 /// KIR2DS2 /// KIR2DS3 /// KIR2DS4 /// KIR3DL3 /// KIR3DL3 /// KIR3DS1 (11738374_at) / RFU C1QL1 (11718748_at) / Fold change /veh C1QL1 (11718748_at) / RFU TMPRSS4 (11747572_a_at) / Fold change /veh TMPRSS4 (11747572_a_at) / RFU HAMP (11756126_x_at) / Fold change /veh HAMP (11756126_x_at) / RFU RNFT2 (11725882_a_at) / Fold change /veh RNFT2 (11725882_a_at) / RFU NR4A2 (11747474_a_at) / Fold change /veh NR4A2 (11747474_a_at) / RFU ABCC12 (11746883_a_at) / Fold change /veh ABCC12 (11746883_a_at) / RFU TMEM136 (11760407_x_at) / Fold change /veh TMEM136 (11760407_x_at) / RFU CLDN22 /// WWC2 (11732394_at) / Fold change /veh CLDN22 /// WWC2 (11732394_at) / RFU HLA-DPB1 (11760878_x_at) / Fold change /veh HLA-DPB1 (11760878_x_at) / RFU SPINT1 (11716480_a_at) / Fold change /veh SPINT1 (11716480_a_at) / RFU GAP43 (11754022_s_at) / Fold change /veh GAP43 (11754022_s_at) / RFU A4GNT (11735810_at) / Fold change /veh A4GNT (11735810_at) / RFU PRB3 (11715151_x_at) / Fold change /veh PRB3 (11715151_x_at) / RFU TUBB4B (11761932_at) / Fold change /veh TUBB4B (11761932_at) / RFU CAPN14 (11732068_a_at) / Fold change /veh CAPN14 (11732068_a_at) / RFU TMCC2 (11721928_a_at) / Fold change /veh TMCC2 (11721928_a_at) / RFU IRGQ (11745062_a_at) / Fold change /veh IRGQ (11745062_a_at) / RFU FAM174B (11720279_a_at) / Fold change /veh FAM174B (11720279_a_at) / RFU TMPRSS4 (11748680_a_at) / Fold change /veh TMPRSS4 (11748680_a_at) / RFU FAM212B (11763350_a_at) / Fold change /veh FAM212B (11763350_a_at) / RFU PLEKHG5 (11743358_a_at) / Fold change /veh PLEKHG5 (11743358_a_at) / RFU ZSCAN30 (11745921_a_at) / Fold change /veh ZSCAN30 (11745921_a_at) / RFU CMKLR1 (11741424_a_at) / Fold change /veh CMKLR1 (11741424_a_at) / RFU LOC101060620 /// MAPK8IP1 (11723275_at) / Fold change /veh LOC101060620 /// MAPK8IP1 (11723275_at) / RFU SPTSSB (11747773_x_at) / Fold change /veh SPTSSB (11747773_x_at) / RFU PRSS12 (11739890_at) / Fold change /veh PRSS12 (11739890_at) / RFU BIN1 (11741810_x_at) / Fold change /veh BIN1 (11741810_x_at) / RFU WNT11 (11732464_a_at) / Fold change /veh WNT11 (11732464_a_at) / RFU C10orf10 (11716521_a_at) / Fold change /veh C10orf10 (11716521_a_at) / RFU C5orf56 (11738089_at) / Fold change /veh C5orf56 (11738089_at) / RFU CYB561 (11721691_x_at) / Fold change /veh CYB561 (11721691_x_at) / RFU ANKRD19P (11752326_a_at) / Fold change /veh ANKRD19P (11752326_a_at) / RFU OR2T12 /// OR2T33 /// OR2T8 (11738714_s_at) / Fold change /veh OR2T12 /// OR2T33 /// OR2T8 (11738714_s_at) / RFU VCAN (11748164_a_at) / Fold change /veh VCAN (11748164_a_at) / RFU JSRP1 (11732532_at) / Fold change /veh JSRP1 (11732532_at) / RFU KRTAP10-11 (11738290_x_at) / Fold change /veh KRTAP10-11 (11738290_x_at) / RFU MYO3A (11730013_a_at) / Fold change /veh MYO3A (11730013_a_at) / RFU EBF3 (11725865_a_at) / Fold change /veh EBF3 (11725865_a_at) / RFU CAMK2N1 (11719241_x_at) / Fold change /veh CAMK2N1 (11719241_x_at) / RFU C5orf56 (11738088_a_at) / Fold change /veh C5orf56 (11738088_a_at) / RFU OLFML3 (11715873_a_at) / Fold change /veh OLFML3 (11715873_a_at) / RFU LOC100653217 /// NTM (11731650_a_at) / Fold change /veh LOC100653217 /// NTM (11731650_a_at) / RFU MAPK11 (11762145_a_at) / Fold change /veh MAPK11 (11762145_a_at) / RFU FIZ1 (11724087_x_at) / Fold change /veh FIZ1 (11724087_x_at) / RFU OASL (11726364_x_at) / Fold change /veh OASL (11726364_x_at) / RFU SOX15 (11748057_x_at) / Fold change /veh SOX15 (11748057_x_at) / RFU CD79A (11719716_a_at) / Fold change /veh CD79A (11719716_a_at) / RFU HIST1H1D (11736915_at) / Fold change /veh HIST1H1D (11736915_at) / RFU CASKIN2 (11723855_a_at) / Fold change /veh CASKIN2 (11723855_a_at) / RFU LOC730098 (11760151_x_at) / Fold change /veh LOC730098 (11760151_x_at) / RFU OR4N2 (11742367_at) / Fold change /veh OR4N2 (11742367_at) / RFU PRRT2 (11749266_a_at) / Fold change /veh PRRT2 (11749266_a_at) / RFU SNX32 (11753110_a_at) / Fold change /veh SNX32 (11753110_a_at) / RFU CDHR5 (11726645_a_at) / Fold change /veh CDHR5 (11726645_a_at) / RFU RCAN1 (11760418_a_at) / Fold change /veh RCAN1 (11760418_a_at) / RFU FAM167A (11723789_a_at) / Fold change /veh FAM167A (11723789_a_at) / RFU FAM26E (11764081_at) / Fold change /veh FAM26E (11764081_at) / RFU ISYNA1 (11749810_s_at) / Fold change /veh ISYNA1 (11749810_s_at) / RFU ACY1 (11761880_at) / Fold change /veh ACY1 (11761880_at) / RFU 11764098_at / Fold change /veh 11764098_at / RFU SAMD14 (11745864_x_at) / Fold change /veh SAMD14 (11745864_x_at) / RFU NPB (11741838_a_at) / Fold change /veh NPB (11741838_a_at) / RFU TMPRSS6 (11731388_a_at) / Fold change /veh TMPRSS6 (11731388_a_at) / RFU KRTAP10-2 (11738614_at) / Fold change /veh KRTAP10-2 (11738614_at) / RFU ARHGAP8 /// PRR5-ARHGAP8 (11727945_x_at) / Fold change /veh ARHGAP8 /// PRR5-ARHGAP8 (11727945_x_at) / RFU KRTAP5-7 /// NADSYN1 (11734609_at) / Fold change /veh KRTAP5-7 /// NADSYN1 (11734609_at) / RFU RASL12 (11751679_a_at) / Fold change /veh RASL12 (11751679_a_at) / RFU CDKN2B (11736163_a_at) / Fold change /veh CDKN2B (11736163_a_at) / RFU PRF1 (11729649_at) / Fold change /veh PRF1 (11729649_at) / RFU, ZNF638 /// ZNF638-IT1 / Fold change vs veh, ZNF638 /// ZNF638-IT1 / RFU, PANK3 / Fold change vs veh, PANK3 / RFU, SH3YL1 / Fold change vs veh, SH3YL1 / RFU, ZEB2 / Fold change vs veh, ZEB2 / RFU, NRIP1 / Fold change vs veh, NRIP1 / RFU, PTTG1IP / Fold change vs veh, PTTG1IP / RFU, CAPN2 / Fold change vs veh, CAPN2 / RFU, MED14 / Fold change vs veh, MED14 / RFU, SNORA58 / Fold change vs veh, SNORA58 / RFU, C1orf63 / Fold change vs veh, C1orf63 / RFU, LRRFIP1 / Fold change vs veh, LRRFIP1 / RFU, NDUFAF7 / Fold change vs veh, NDUFAF7 / RFU, SLC12A2 / Fold change vs veh, SLC12A2 / RFU, IBTK / Fold change vs veh, IBTK / RFU, ESF1 / Fold change vs veh, ESF1 / Fold change vs veh, TMEM50B / RFU, TAOK1 / Fold change vs veh, TAOK1 / RFU, ACBD3 / Fold change vs veh, ACBD3 / RFU, TMA16 / Fold change vs veh, TMA16 / RFU, RWDD3 / Fold change vs veh, RWDD3 / RFU, BCAT1 / Fold change vs veh, BCAT1 / RFU, EDEM3 / Fold change vs veh, EDEM3 / RFU, TMEM33 / Fold change vs veh, TMEM33 / RFU, WDR75 / Fold change vs veh, WDR75 / RFU, AHCTF1 / Fold change vs veh, AHCTF1 / RFU, TFRC / Fold change vs veh, TFRC / RFU, ZDHHC17 / Fold change vs veh, ZDHHC17 / RFU, NOM1 / Fold change vs veh, NOM1 / RFU, ARL8B / Fold change vs veh, ARL8B / RFU, ZBTB11 / Fold change vs veh, ZBTB11 / RFU, TAMM41 / Fold change vs veh, TAMM41 / RFU, KIAA1704 /// LOC100996395 / Fold change vs veh, KIAA1704 /// LOC100996395 / RFU, ING1 / Fold change vs veh, ING1 / RFU, TRMT61B / Fold change vs veh, TRMT61B / RFU, FUBP3 / Fold change vs veh, FUBP3 / RFU, TP53 / Fold change vs veh, TP53 / RFU, TNKS2 / Fold change vs veh, TNKS2 / RFU, ZFP14 / Fold change vs veh, ZFP14 / RFU, ACTR2 / Fold change vs veh, ACTR2 / RFU, PPP3R1 / Fold change vs veh, PPP3R1 / RFU, PIK3R1 / Fold change vs veh, PIK3R1 / RFU, HNRNPA1 / Fold change vs veh, HNRNPA1 / RFU, RNF170 / Fold change vs veh, RNF170 / RFU, ZNF28 / Fold change vs veh, ZNF28 / RFU, RNGTT / Fold change vs veh, RNGTT / RFU, OGT / Fold change vs veh, OGT / RFU, BRD1 / Fold change vs veh, BRD1 / RFU, MARS / Fold change vs veh, MARS / RFU, ZNF655 / Fold change vs veh, ZNF655 / RFU, FAHD1 / Fold change vs veh, FAHD1 / RFU, BDP1 / Fold change vs veh, BDP1 / RFU, LRRCC1 / Fold change vs veh, LRRCC1 / RFU, ARID1A / Fold change vs veh, ARID1A / RFU, ZNF146 / Fold change vs veh, ZNF146 / RFU, ZNF330 / Fold change vs veh, ZNF330 / RFU, GPN3 / Fold change vs veh, GPN3 / RFU, C9orf123 / Fold change vs veh, C9orf123 / RFU, N4BP2L2 / Fold change vs veh, N4BP2L2 / RFU, ARFIP1 / Fold change vs veh, ARFIP1 / RFU, FAM179B / Fold change vs veh, FAM179B / RFU, BCL10 / Fold change vs veh, BCL10 / RFU, UHRF1BP1L / Fold change vs veh, UHRF1BP1L / RFU, BET1 / Fold change vs veh, BET1 / RFU, CNOT2 / Fold change vs veh, CNOT2 / RFU, ZNF268 / Fold change vs veh, ZNF268 / Fold change vs veh, ZNF507 / RFU, DGCR2 / Fold change vs veh, DGCR2 / RFU, WDSUB1 / Fold change vs veh, WDSUB1 / Fold change vs veh, HSP90B1 /// MIR3652 / RFU, ADSS / Fold change vs veh, ADSS / RFU, GK / Fold change vs veh, GK / RFU, ZNF148 / Fold change vs veh, ZNF148 / RFU, TAF9 / Fold change vs veh, TAF9 / RFU, SLC1A5 / Fold change vs veh, SLC1A5 / RFU, SLMO2 / Fold change vs veh, SLMO2 / RFU, ABCC4 / Fold change vs veh, ABCC4 / RFU, LOC101060439 /// RAP1B / Fold change vs veh, LOC101060439 /// RAP1B / RFU, RFX7 / Fold change vs veh, RFX7 / RFU, GTPBP10 / Fold change vs veh, GTPBP10 / RFU, CNEP1R1 / Fold change vs veh, CNEP1R1 / RFU, BIVM-ERCC5 /// ERCC5 / Fold change vs veh, BIVM-ERCC5 /// ERCC5 / RFU, ILF3 / Fold change vs veh, ILF3 / RFU 11762660_at / Fold change /veh 11762660_at / RFU VCAN (11757783_s_at) / Fold change /veh VCAN (11757783_s_at) / RFU DDX43 (11728927_at) / Fold change /veh DDX43 (11728927_at) / RFU KRT8 (11758188_x_at) / Fold change /veh KRT8 (11758188_x_at) / RFU NKD1 (11759106_at) / Fold change /veh NKD1 (11759106_at) / RFU SRD5A1 (11742802_a_at) / Fold change /veh SRD5A1 (11742802_a_at) / RFU TPSAB1 /// TPSB2 (11721975_s_at) / Fold change /veh TPSAB1 /// TPSB2 (11721975_s_at) / RFU GSTM3 (11746129_a_at) / Fold change /veh GSTM3 (11746129_a_at) / RFU IL23R (11737362_x_at) / Fold change /veh IL23R (11737362_x_at) / RFU TMEM51 (11727254_a_at) / Fold change /veh TMEM51 (11727254_a_at) / RFU PIWIL2 (11732686_x_at) / Fold change /veh PIWIL2 (11732686_x_at) / RFU ORM1 (11744905_x_at) / Fold change /veh ORM1 (11744905_x_at) / RFU CCDC152 (11743942_at) / Fold change /veh CCDC152 (11743942_at) / RFU ECM1 (11717891_a_at) / Fold change /veh ECM1 (11717891_a_at) / RFU IL23R (11748794_a_at) / Fold change /veh IL23R (11748794_a_at) / RFU TNFAIP8L3 (11732012_x_at) / Fold change /veh TNFAIP8L3 (11732012_x_at) / RFU MBOAT4 (11741988_at) / Fold change /veh MBOAT4 (11741988_at) / RFU 11764193_at / Fold change /veh 11764193_at / RFU TMEM53 (11763286_at) / Fold change /veh TMEM53 (11763286_at) / RFU MAGEB2 (11727129_at) / Fold change /veh MAGEB2 (11727129_at) / RFU TMEM200A (11744735_a_at) / Fold change /veh TMEM200A (11744735_a_at) / RFU CCDC152 (11751479_a_at) / Fold change /veh CCDC152 (11751479_a_at) / RFU FAM211A (11726209_a_at) / Fold change /veh FAM211A (11726209_a_at) / RFU RGS16 (11746705_a_at) / Fold change /veh RGS16 (11746705_a_at) / RFU VCAN (11755009_s_at) / Fold change /veh VCAN (11755009_s_at) / RFU RHOB (11743442_s_at) / Fold change /veh RHOB (11743442_s_at) / RFU RGS16 (11720943_a_at) / Fold change /veh RGS16 (11720943_a_at) / RFU RGS16 (11720944_at) / Fold change /veh RGS16 (11720944_at) / RFU, VPS4B / Fold change vs veh, VPS4B / RFU, CREB1 / Fold change vs veh, CREB1 / RFU, DNAJC13 / Fold change vs veh, DNAJC13 / RFU, GNAQ / Fold change vs veh, GNAQ / RFU, CDK5R1 / Fold change vs veh, CDK5R1 / RFU, ZRANB3 / Fold change vs veh, ZRANB3 / RFU, CUL4A / Fold change vs veh, CUL4A / RFU, CCNY / Fold change vs veh, CCNY / RFU, UFL1 / Fold change vs veh, UFL1 / RFU, COG3 / Fold change vs veh, COG3 / RFU, DIAPH2 / Fold change vs veh, DIAPH2 / RFU, SKA2 / Fold change vs veh, SKA2 / RFU, AFF3 / Fold change vs veh, AFF3 / RFU, LMF1 / Fold change vs veh, LMF1 / RFU, IPO11 / Fold change vs veh, IPO11 / RFU, DFFB / Fold change vs veh, DFFB / RFU, FOXP1 / Fold change vs veh, FOXP1 / RFU, CARD8 / Fold change vs veh, CARD8 / RFU, STRN3 / Fold change vs veh, STRN3 / RFU, ADK / Fold change vs veh, ADK / RFU, RASSF2 / Fold change vs veh, RASSF2 / RFU, WIPF1 / Fold change vs veh, WIPF1 / RFU, LARP1B / Fold change vs veh, LARP1B / RFU, RASA1 / Fold change vs veh, RASA1 / RFU, RB1 / Fold change vs veh, RB1 / RFU, PPFIA1 / Fold change vs veh, PPFIA1 / RFU, MAT2A / Fold change vs veh, MAT2A / RFU, CCT5 / Fold change vs veh, CCT5 / RFU, WDR92 / Fold change vs veh, WDR92 / RFU, CUX1 / Fold change vs veh, CUX1 / RFU, TTC7A / Fold change vs veh, TTC7A / RFU, TMEM135 / Fold change vs veh, TMEM135 / RFU, DEPTOR / Fold change vs veh, DEPTOR / RFU, CPM / Fold change vs veh, CPM / RFU, DNAJB6 / Fold change vs veh, DNAJB6 / RFU, CACNA2D3 / Fold change vs veh, CACNA2D3 / RFU, DTX4 / Fold change vs veh, DTX4 / RFU, TFCP2 / Fold change vs veh, TFCP2 / RFU, GMCL1 /// GMCL1P1 / Fold change vs veh, GMCL1 /// GMCL1P1 / RFU, AEBP2 / Fold change vs veh, AEBP2 / RFU, SNHG1 /// SNORD22 /// SNORD25 /// SNORD26 /// SNORD27 /// SNORD28 /// SNORD29 /// SNORD31 / Fold change vs veh, SNHG1 /// SNORD22 /// SNORD25 /// SNORD26 /// SNORD27 /// SNORD28 /// SNORD29 /// SNORD31 / Fold change (Aza/veh), C12orf56 (ProbeSet 11735607_a_at) / Fold change (ACY-1035/veh), C12orf56 (ProbeSet 11735607_a_at) / Fold change (Aza/veh), FGFR1OP (ProbeSet 11751329_s_at) / Fold change (ACY-1035/veh), FGFR1OP (ProbeSet 11751329_s_at) / Fold change (Aza/veh), VPS36 (ProbeSet 11739960_a_at) / Fold change (ACY-1035/veh), VPS36 (ProbeSet 11739960_a_at) / RFU SYPL1 (11715823_x_at) / Fold change /veh SYPL1 (11715823_x_at) / RFU IGFBP7 (11715501_s_at) / Fold change /veh IGFBP7 (11715501_s_at) / RFU REEP3 (11722064_at) / Fold change /veh REEP3 (11722064_at) / RFU IGLL1 (11728026_x_at) / Fold change /veh IGLL1 (11728026_x_at): dose or concentration left out as unconfirmed
Settings: gene C12orf56; Azacitidine vs DMSO; LIST F

Nc1ncn([C@@H]2O[C@H](CO)[C@@H](O)[C@H]2O)c(=O)n1 [azacitidine]
Fold change (Aza/veh), C12orf56 (ProbeSet 11735607_a_at): 1.01
